The values that follow come from patent US20030028906A1, “Gene control” (priority 1995, published 2003).

The test system of one data set is Ah receptor. The data set is described as follows: Induction of the transgene in C57 BL6 mice. The class given is in vivo, mouse. From the text: (§1) In addition to the use of this promoter as a general regulatable system for the expression of transgenes this strategy can be exploited to obtain expression targeted to specific cell types. Thus, for example, when the transgene is incorporated into cells containing a modified hydrocarbon receptor, the inducability of the transgene is modulated. […] In addition, the introduction of an Ah receptor responsive to 3-methylcholanthrene into a specific cell, e.g. through the use of a tissue-specific promoter element, will allow tissue-specific induction of a transgene in this mouse on administration of 3-methylcholanthrene. This strategy exploits the fact that the Ah receptor in DBA mice through mutation is non-responsive to certain classes of agents which induce by this mechanism. […] Therefore, using a combination of different forms of the Ah receptor with different types of inducing agent will allow much more precise regulation of transgene expression in cells.

Data set [1] relates to CYP1A1/β-galactosidase promoter/reporter. The data set is described as follows: β-galactosidase staining of tissue sections from transgenic mice carrying pAhIR1β-gal after 3-MC induction. As to conditions: for β-Galactosidase staining intensity: mice carrying pAHIR1, 3-MC 40 μg/g once a day for 3 days; for induction of lacZ expression in the liver: 9 kb rat CYP1A1 promoter-lacZ transgenic mice, IP 40 mg/kg for 3 days, 40 mg/kg. From the text: The protocol described below has been adapted to analyse the β-galactosidase expression from transgenic mice and in this regard determine the activity of the P450 1A1 promoter which is effectively driving the expression of this transgene in response to induction of P450 1A1 by the carcinogenic agent 3-methylcholanthrene. All timings in this protocol are critical.
When performing this technique it is essential to incorporate a positive control into the reaction where a tissue sample which is a known expresser of β-galactosidase is treated in an identical manner to that of the test tissues. […] The positive control used in these experiments was a small intestine sample which was a known high expressor of the detection enzyme.
1) The mouse under test was killed by cervical dislocation and the organs required were removed using a sterile scalpel. A small representative piece of mouse organ was fixed on to moistened cork using commercial adhesive. The tissue sample on the cork was then frozen in liquid nitrogen chilled freezing spray (Histological Supplies LTD) for approximately 30 seconds. The tissue sample was then double wrapped in parafilm, placed in a plastic bag, sealed and snap frozen in liquid nitrogen.
4) The metal chuck was placed in the cryostat holder and turned until the tip of the tissues touched the front of the cutting blade. The cryostat was set to obtain small sections approximately 8 microns thickness. By turning the handle of the cryostat small sections of tissue were obtained. Sections were continually taken until a representative section of tissue was obtained. The antiroll plate was then placed against the blade and a section to be harvested was cut.
9) Slides were produced as described using the cryostat and the tissue was fixed in 0.5% glutaraldehyde (in PBS) for 1 day at 4° C. 10) The tissue was then incubated in PBS +2mM MgCl2+30% sucrose at 4° C. overnight.
13) 2-3 hours in X-gal solution at 37° C. or even overnight.
19) The slides were then mounted in DPX and viewed under a microscope. It was important at this stage that the slides were never permitted to dry out since this will affect the quality of the results. The slides should be continually dipped into the histoclear solution to prevent this occurring while the slides are being prepared.
The expected results from the β-galacotsidase staining assay are areas of pink which uniformly stain the tissue section and small areas of blue in the tissue section which indicate areas where X-gal has been metabolised by the β-galactosidase enzyme.
The inducibility of expression. The pAhIR1βgal transgene in the liver was examined after administration of 3-methylcholanthrene (3-mc). The inducing agent was administered IP at a dosage of 40 mg/kg for 3 days and the animals were sacrificed for expression on day four. The induction in the transgenic animals was controlled by:
a) administration of corn oil to transgenic mice,
b) the administration of 3-methylcholanthrene (3-mc) to non-transgenic littermates.
lacZ expression was also investigated in a number of other tissues. The same procedure for sectioning and staining tissue sections was employed.

A further data set deals with modified Ah receptor. The experiment in a line: Induction of the transgene in DBA mice. It counts as in vivo, mouse.
From the text: as §1

For another data set, the system named is β-galactosidase activity. The experiment in a line: β-galactosidase staining of tissue sections from non-transgenic controls treated with 3-MC. It counts as in vivo, mouse. The text has this:
All timings in this protocol are critical.

Data set [2] relates to CYP1A1 dioxin-responsive promoter coupled to CAT reporter gene. As to conditions: 2.58 kbp mouse CYP1A1 fragment-CAT transgenic mice, cited from earlier work.

SMILES strings stand for the structures.

As for `Cc1ccc2cc3c(ccc4ccccc43)c3c2c1CC3` [3-methylcholanthrene], the figures for the “induction of the transgene” value in the data set on Ah receptor and in the data set on modified Ah receptor were “an inducer of the transgene” and “not an inducer of the transgene”, respectively. For the same compound, the β-Galactosidase staining intensity result in data set [1] (Adrenal gland) is listed as “+++”; in data set [1] (Colon) it was “+”; in data set [1] (Duodenum), “+++”; in data set [1] (Forestomach), “+”; in data set [1] (Ileum) it was “+++”; in data set [1] (Jejunum), “+++”. For the same compound, the β-Galactosidase staining intensity result in data set [1] (Kidney) is on record as “++”; in data set [1] (Liver), “++++”; in data set [1] (Lung), “+”; in data set [1] (Oesophagus) it was “++”; in data set [1] (Ovary) it was “+”; in data set [1] (Pancreas), “+”. Further, the β-Galactosidase staining intensity result is “++” in data set [1] (Spleen); “+” in data set [1] (Stomach); “+” in data set [1] (Testes); “+” in the data set with β-galactosidase activity (Duodenum); “+” in the data set with β-galactosidase activity (Ileum); “+” in the data set with β-galactosidase activity (Jejunum). Also, the β-Galactosidase staining intensity result in the data set on β-galactosidase activity (Kidney) is “+”. For the same compound, the “3-mc induced lacZ expression in tissues” value in data set [1] (Liver, Kidney, Brain (specific regions), Duodenum, Jejunum, Ileum, Lung, Spleen, Oesophagus, Colon, Pancreas, Adrenal Gland, Ovary) is given as “detected”. Also, the “induction of lacZ expression in the liver” value is listed as “very high” in data set [1] (listed as 3-mc) and “massive induction” in data set [1] (listed as 3-methyl-cholanthene). For the same compound, in data set [1] (spleen and bowel, 9 kb rat CYP1A1 promoter transgenic mice), the “induction of expression in spleen and bowel” value is “substantial induction”. Moreover, the “increase of hepatic expression levels (CAT reporter)” value in data set [2] (liver, versus mock-induction) is reported as ≤ 10,000 fold. The “induction of CAT expression” value in data set [2] (spleen, small bowel, kidney and lung) is “More modest levels of induction”.

On to `Clc1cc2c(cc1Cl)Oc1cc(Cl)c(Cl)cc1O2` [tetrachlorodibenzodioxin], for which, in the data set with modified Ah receptor, the “induction of the transgene” value is “induction can still be obtained”.
